Test results from the NIST ThermoML archive (doi:10.1016/j.jct.2012.01.022).

Experiment: xn = mol fraction of the nth substance listed
Details: 101 kPa, Liquid; for speed of sound: Sing-around technique in a fixed-path interferometer; for mass density: Vibrating tube method; for viscosity: Capillary tube (Ostwald / Ubbelohde) method

NCCN [ethane-1,2-diamine] + CCCCCCCCCCO
Details | mass density [kg/m3] | speed of sound [m/s] | viscosity [mPa·s]
293.15 K, x1 = 0.0424 | 831.534 | 1402.1 | –
293.15 K, x1 = 0.1063 | 834.058 | 1408.9 | –
293.15 K, x1 = 0.1512 | 835.766 | 1414.8 | –
293.15 K, x1 = 0.1995 | 837.56 | 1420.8 | –
293.15 K, x1 = 0.2511 | 839.445 | 1427.1 | –
293.15 K, x1 = 0.2957 | 841.022 | 1432.6 | –
293.15 K, x1 = 0.3961 | 844.521 | 1445.5 | –
293.15 K, x1 = 0.4929 | 848.18 | 1459.7 | –
293.15 K, x1 = 0.609 | 853.458 | 1481.8 | –
293.15 K, x1 = 0.6962 | 858.67 | 1504.6 | –
293.15 K, x1 = 0.7975 | 866.833 | 1541.1 | –
293.15 K, x1 = 0.855 | 872.943 | 1570.1 | –
293.15 K, x1 = 0.9054 | 879.622 | 1602.3 | –
293.15 K, x1 = 0.9591 | 888.704 | 1648.1 | –
298.15 K, x1 = 0.0424 | 828.092 | 1384.9 | 10.96
298.15 K, x1 = 0.1063 | 830.545 | 1391.6 | 10.6
298.15 K, x1 = 0.1512 | 832.202 | 1397.5 | 10.36
298.15 K, x1 = 0.1995 | 833.938 | 1403.3 | 9.921
298.15 K, x1 = 0.2511 | 835.76 | 1409.5 | 9.382
298.15 K, x1 = 0.2957 | 837.289 | 1414.9 | 8.821
298.15 K, x1 = 0.3961 | 840.693 | 1427.6 | 7.355
298.15 K, x1 = 0.4929 | 844.262 | 1441.5 | 6.047
298.15 K, x1 = 0.609 | 849.415 | 1463.1 | 4.514
298.15 K, x1 = 0.6962 | 854.51 | 1485.4 | 3.644
298.15 K, x1 = 0.7975 | 862.525 | 1521.3 | 2.699
298.15 K, x1 = 0.855 | 868.535 | 1549.7 | 2.198
298.15 K, x1 = 0.9054 | 875.128 | 1581.4 | 1.874
298.15 K, x1 = 0.9591 | 884.107 | 1626.4 | 1.598
303.15 K, x1 = 0.0424 | 824.641 | 1367.8 | 9.008
303.15 K, x1 = 0.1063 | 827.029 | 1374.7 | 8.713
303.15 K, x1 = 0.1512 | 828.635 | 1380.3 | 8.442
303.15 K, x1 = 0.1995 | 830.31 | 1386.1 | 8.104
303.15 K, x1 = 0.2511 | 832.075 | 1392.1 | 7.658
303.15 K, x1 = 0.2957 | 833.56 | 1397.5 | 7.229
303.15 K, x1 = 0.3961 | 836.868 | 1409.8 | 6.168
303.15 K, x1 = 0.4929 | 840.345 | 1423.5 | 5.062
303.15 K, x1 = 0.609 | 845.37 | 1444.5 | 3.892
303.15 K, x1 = 0.6962 | 850.353 | 1466.5 | 3.107
303.15 K, x1 = 0.7975 | 858.212 | 1501.6 | 2.343
303.15 K, x1 = 0.855 | 864.125 | 1529.5 | 1.985
303.15 K, x1 = 0.9054 | 870.631 | 1560.8 | 1.66
303.15 K, x1 = 0.9591 | 879.506 | 1604.9 | 1.403
308.15 K, x1 = 0.0424 | 821.178 | 1350.9 | 7.295
308.15 K, x1 = 0.1063 | 823.508 | 1358 | 7.087
308.15 K, x1 = 0.1512 | 825.064 | 1363.4 | 6.852
308.15 K, x1 = 0.1995 | 826.684 | 1369.1 | 6.563
308.15 K, x1 = 0.2511 | 828.392 | 1375 | 6.202
308.15 K, x1 = 0.2957 | 829.829 | 1380.3 | 5.881
308.15 K, x1 = 0.3961 | 833.045 | 1392.3 | 5.028
308.15 K, x1 = 0.4929 | 836.429 | 1405.6 | 4.23
308.15 K, x1 = 0.609 | 841.323 | 1426.1 | 3.288
308.15 K, x1 = 0.6962 | 846.189 | 1447.5 | 2.661
308.15 K, x1 = 0.7975 | 853.898 | 1481.9 | 2.032
308.15 K, x1 = 0.855 | 859.714 | 1509.4 | 1.708
308.15 K, x1 = 0.9054 | 866.124 | 1540.1 | 1.485
308.15 K, x1 = 0.9591 | 874.895 | 1583.6 | 1.238
313.15 K, x1 = 0.0424 | 817.698 | 1334.2 | –
313.15 K, x1 = 0.1063 | 819.969 | 1341.6 | –
313.15 K, x1 = 0.1512 | 821.476 | 1346.8 | –
313.15 K, x1 = 0.1995 | 823.045 | 1352.3 | –
313.15 K, x1 = 0.2511 | 824.7 | 1358.1 | –
313.15 K, x1 = 0.2957 | 826.089 | 1363.2 | –
313.15 K, x1 = 0.3961 | 829.21 | 1375 | –
313.15 K, x1 = 0.4929 | 832.502 | 1387.9 | –
313.15 K, x1 = 0.609 | 837.271 | 1407.9 | –
313.15 K, x1 = 0.6962 | 842.017 | 1428.6 | –
313.15 K, x1 = 0.7975 | 849.57 | 1462.5 | –
313.15 K, x1 = 0.855 | 855.287 | 1489.4 | –
313.15 K, x1 = 0.9054 | 861.605 | 1519.8 | –
313.15 K, x1 = 0.9591 | 870.264 | 1562.4 | –

NCCN [ethane-1,2-diamine] + CCCCCCCCO
Details | mass density [kg/m3] | speed of sound [m/s] | viscosity [mPa·s]
293.15 K, x1 = 0.0595 | 828.135 | 1373.2 | –
293.15 K, x1 = 0.1021 | 830.247 | 1379.6 | –
293.15 K, x1 = 0.143 | 832.248 | 1386.6 | –
293.15 K, x1 = 0.2012 | 835.047 | 1396.5 | –
293.15 K, x1 = 0.2633 | 838.043 | 1407.3 | –
293.15 K, x1 = 0.3122 | 839.349 | 1412.6 | –
293.15 K, x1 = 0.4113 | 844.656 | 1433.8 | –
293.15 K, x1 = 0.4919 | 848.413 | 1450.2 | –
293.15 K, x1 = 0.5973 | 854.134 | 1475.6 | –
293.15 K, x1 = 0.7019 | 861.054 | 1508.3 | –
293.15 K, x1 = 0.7938 | 868.882 | 1546.3 | –
293.15 K, x1 = 0.8436 | 874.136 | 1573.2 | –
293.15 K, x1 = 0.8941 | 881.269 | 1609.4 | –
293.15 K, x1 = 0.9546 | 889.526 | 1651.7 | –
298.15 K, x1 = 0.0595 | 824.621 | 1356.2 | –
298.15 K, x1 = 0.0596 | – | – | 6.934
298.15 K, x1 = 0.1021 | 826.683 | 1362.6 | 6.834
298.15 K, x1 = 0.143 | 828.632 | 1369.4 | 6.713
298.15 K, x1 = 0.2012 | 831.36 | 1379.3 | 6.457
298.15 K, x1 = 0.2633 | 834.276 | 1389.9 | 6.099
298.15 K, x1 = 0.3122 | 835.547 | 1397.8 | 5.734
298.15 K, x1 = 0.4113 | 840.743 | 1415.9 | 4.957
298.15 K, x1 = 0.4919 | 844.426 | 1432 | 4.251
298.15 K, x1 = 0.5973 | 850.038 | 1457.1 | 3.406
298.15 K, x1 = 0.7019 | 856.833 | 1489 | 2.707
298.15 K, x1 = 0.7938 | 864.539 | 1526.5 | 2.214
298.15 K, x1 = 0.8436 | 869.72 | 1551.8 | 1.985
298.15 K, x1 = 0.8941 | 876.764 | 1582.4 | 1.751
298.15 K, x1 = 0.9546 | 884.925 | 1627.9 | 1.54
303.15 K, x1 = 0.0595 | – | 1338.9 | –
303.15 K, x1 = 0.0596 | – | – | 5.792
303.15 K, x1 = 0.1021 | – | 1345.7 | 5.694
303.15 K, x1 = 0.143 | – | 1352.5 | 5.569
303.15 K, x1 = 0.2012 | – | 1362.3 | 5.331
303.15 K, x1 = 0.2633 | – | 1372.1 | 5.041
303.15 K, x1 = 0.3122 | – | 1379.9 | 4.75
303.15 K, x1 = 0.4113 | – | 1398.3 | 4.144
303.15 K, x1 = 0.4919 | – | 1414 | 3.595
303.15 K, x1 = 0.5973 | – | 1438.7 | 2.917
303.15 K, x1 = 0.7019 | – | 1469.9 | 2.395
303.15 K, x1 = 0.7938 | – | 1506.3 | 1.956
303.15 K, x1 = 0.8436 | – | 1530.5 | 1.748
303.15 K, x1 = 0.8941 | – | 1559.9 | 1.532
303.15 K, x1 = 0.9546 | – | 1604.9 | 1.34
308.15 K, x1 = 0.0595 | 817.544 | 1322.8 | –
308.15 K, x1 = 0.0596 | – | – | 4.848
308.15 K, x1 = 0.1021 | 819.514 | 1329 | 4.757
308.15 K, x1 = 0.143 | 821.37 | 1335.8 | 4.662
308.15 K, x1 = 0.2012 | 823.957 | 1345.5 | 4.461
308.15 K, x1 = 0.2633 | 826.723 | 1355.7 | 4.211
308.15 K, x1 = 0.3122 | 827.934 | 1360.7 | 3.975
308.15 K, x1 = 0.4113 | 832.902 | 1380.8 | 3.497
308.15 K, x1 = 0.4919 | 836.434 | 1396.4 | 3.054
308.15 K, x1 = 0.5973 | 841.825 | 1420.5 | 2.515
308.15 K, x1 = 0.7019 | 848.372 | 1451.2 | 2.031
308.15 K, x1 = 0.7938 | 855.829 | 1487.3 | 1.669
308.15 K, x1 = 0.8436 | 860.863 | 1512.4 | 1.5
308.15 K, x1 = 0.8941 | 867.723 | 1546.7 | 1.342
308.15 K, x1 = 0.9546 | 875.69 | 1586.8 | 1.2
313.15 K, x1 = 0.0595 | 813.972 | 1306.6 | –
313.15 K, x1 = 0.1021 | 815.903 | 1313.3 | –
313.15 K, x1 = 0.143 | 817.713 | 1319.7 | –
313.15 K, x1 = 0.2012 | 820.239 | 1329 | –
313.15 K, x1 = 0.2633 | 822.931 | 1339.1 | –
313.15 K, x1 = 0.3122 | 824.111 | 1343.9 | –
313.15 K, x1 = 0.4113 | 828.963 | 1363.5 | –
313.15 K, x1 = 0.4919 | 832.42 | 1378.9 | –
313.15 K, x1 = 0.5973 | 837.701 | 1402.6 | –
313.15 K, x1 = 0.7019 | 844.123 | 1432.8 | –
313.15 K, x1 = 0.7938 | 851.455 | 1468.2 | –
313.15 K, x1 = 0.8436 | 856.411 | 1492.4 | –
313.15 K, x1 = 0.8941 | 863.18 | 1526.1 | –
313.15 K, x1 = 0.9546 | 871.049 | 1565.6 | –
